A short description of the assay: Inhibition of Flt3 in human MV411 cells assessed as assessed as proliferation after 72 hrs incubation by spectrophotometry.

Usually EC50 stands for the concentration giving half of the maximal effect. Take `c1cn2cc(-c3ccc4cn[nH]c4c3)nc(Nc3ccc(N4CCOCC4)cc3)c2n1`: the EC50 came to 327 nM.

The values above are taken from BindingDB's records for doi:10.1021/jm500228a (Gilead Sciences, 2014).
